Drawing on ChEMBL document CHEMBL1148057, “1'-(2-Phenyl-ethylene)-ditryptophenaline, a new dimeric diketopiperazine from Aspergillus flavus” (J Nat Prod, 1994), this text covers IC50 and Activity for 3 molecules.

Active and inactive are the calls of the source. No cut-off for these calls is given here.

For test [1], the target named is T1, Substance-P receptor (Homo sapiens, UniProt P25103). In words: Inhibition of substance P receptor.
Test [2] deals with T1, Substance-P receptor. In words: Inhibition of substance P receptor at 100 uM.

T1 sequence (P25103 whole entry): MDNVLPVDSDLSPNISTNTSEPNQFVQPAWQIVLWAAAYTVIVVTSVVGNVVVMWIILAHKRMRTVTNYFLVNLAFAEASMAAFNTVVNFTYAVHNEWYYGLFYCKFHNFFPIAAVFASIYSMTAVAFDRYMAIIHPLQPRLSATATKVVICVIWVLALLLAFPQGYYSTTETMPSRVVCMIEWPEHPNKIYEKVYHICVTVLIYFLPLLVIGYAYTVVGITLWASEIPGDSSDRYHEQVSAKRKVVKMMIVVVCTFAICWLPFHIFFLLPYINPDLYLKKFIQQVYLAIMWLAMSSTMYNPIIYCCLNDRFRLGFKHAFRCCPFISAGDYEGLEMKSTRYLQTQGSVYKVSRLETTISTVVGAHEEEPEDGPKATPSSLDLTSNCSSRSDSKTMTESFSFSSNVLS

Broadly, the IC50 is the concentration at which inhibition is half-maximal. On to `CN1C(=O)[C@@H]2C[C@@]3([C@@]45C[C@H]6C(=O)N(C)[C@@H](Cc7ccccc7)C(=O)N6[C@@H]4Nc4ccccc45)c4ccccc4N[C@H]3N2C(=O)[C@@H]1Cc1ccccc1` [DITRYPTOPHENALINE], for which inhibition against Substance-P receptor [1] was half-maximal at 12 µM (IC50). The same measure, in the same setting: as for `O=C1N[C@@H](Cc2ccccc2)C(=O)N2[C@H]3Nc4ccccc4[C@@]3([C@]34C[C@H]5C(=O)N[C@@H](Cc6ccccc6)C(=O)N5[C@H]3Nc3ccccc34)C[C@@H]12`, the figure is 0.23 µM.

For the molecule `CN1C(=O)[C@@H]2C[C@@]3([C@@]45C[C@H]6C(=O)N(C)[C@@H](Cc7ccccc7)C(=O)N6[C@@H]4N(/C=C/c4ccccc4)c4ccccc45)c4ccccc4N[C@H]3N2C(=O)[C@@H]1Cc1ccccc1`, on Substance-P receptor [2], the result was inactive.
